Measurements: US10730886B2, “Compound having effect of inhibiting platelet aggregation and salt thereof, and composition for preventing or treating thrombotic diseases, containing same” (SHIN POONG PHARMACEUTICAL CO., LTD., priority 2015, dated 2020)

Experiments:
[1] = tested on: human vascular endothelial cells (EA.hy926); assay: Cytotoxicity in EA.hy926 cell line (MTT assay); assay type: cell-based; details: 24 hours
Description: 5-1. Evaluation of Cytotoxicity of Candidate Substances Using EA.hy926 Cell Line
Experiments were conducted to determine the cytotoxicity of candidate substances in human vascular endothelial cells (EA.hy926). EA.hy926 was passaged in DMEM (Dulbecco's […]) supplemented with 10% fetal bovine serum (FBS) at 5% CO2/37° C. The cells were cultured in a 96 well plate at 1×10^4 cells/well for 48 hours, washed twice with DMEM and then cultured for 24 hours. Candidate substances were prepared at final concentrations of 25 and 100 μM, applied to the wells at 200 μl per well and cultured for 24 hours. MTT assay was used to measure the absorbance at 570 nm after colorization in violet.

plasma = assay: Plasma coagulation time, Prothrombin Time (PT); assay type: biochemical; details: plasma treated 3 minutes
Description: In order to separate plasma, blood was collected with 3.2% sodium citrate as an anticoagulant. Whole blood was centrifuged at 2000 g for 20 minutes to obtain plasma. After treating the plasma with the test substances for 3 minutes, plasma coagulation time was measured. For plasma coagulation time, Activated Partial Thromboplastin Time (aPTT) and Prothrombin Time (PT) were measured using BBL® Fibrometer (Becton Dickinson, Cockeysville, Md.). For measurement of aPTT, the plasma was treated with aPTT reagents in fibrometer cup and reacted at 37° C. for 3 min. After the reaction, CaCl2 was added and blood coagulation time was measured immediately. For the measurement of PT, PT reagent was added to warmed plasma, and blood coagulation time was measured immediately. DTI, known to prolong plasma coagulation time, was used as a control.

[2] = tested on: collagen-induced platelet aggregation, Human PRP; assay: Collagen-induced platelet aggregation in human PRP (lumi-aggregometer); assay type: cell-based; details: collagen 2-5 μg/ml
Description: (§1) To investigate whether the candidate substance has inhibition selectivity for shear-stress-induced platelet aggregation, which is by a physical stimulus, […] experiment was conducted by activating platelets with physiological agonists—i.e., thrombin, collagen and ADP—to study the inhibitory effect of the candidate substance.
(§2) Human PRP (598.8 μl) was treated with 1.2 μl of the candidate substance per concentration (25, 100, 250 μM) and reacted at 37° C. for 3 minutes using a thermomixer. Then, PRP (495 μl) was put in the aggregometer cuvette and preincubated for 1 minute, followed by treatment with platelet aggregation-inducing reagent, thrombin (0.6-0.8 U/ml), collagen (2-5 μg/ml), or ADP (adenosine diphosphate, 15-20 μM) at the minimum concentration causing maximum aggregation. The degree of aggregation of the platelets was measured by a turbidity change using a lumi-aggregometer (Chrono-Log Co., USA). The turbidity of the PRP was considered as 0%, and the turbidity of the PPP was considered as 100%. During the measurement, the reaction mixture was continuously stirred at 1,000 rpm with a silicone-coated magnetic stir bar.

[3] = tested on: iron chloride (FeCl3)-induced thrombogenesis model; assay: Arterial thrombosis model, FeCl3-induced carotid artery thrombogenesis; assay type: in vivo, Sprague-Dawley rats; details: rat, 25 mg/kg oral; for Time of thrombogenesis: FeCl3 applied 60 min after administration, occlusion time; for Fold (vs. Control): time of thrombogenesis vs. vehicle control
Description: Vehicle (DMSO: Tween 80: DW=1:2:17) or candidate substance (25 mg/kg) was orally administered to overnight-fasted male Sprague-Dawley rats (250 to 300 g). 30 minutes after administration, the rats were anesthetized by intraperitoneal injection of urethane (1.25 g/kg). The anesthetized animals were restrained on the operating table, and the body temperature was maintained using a heating pad during the entire operating procedure. An incision was made around the neck of the animals to carefully expose the right carotid artery, and the adipose tissues attached to the blood vessels were carefully removed. Doppler flow probe (0.5 mm-diameter, MA0.5PSB, Transonic System Inc., USA) was fixed to the exposed carotid artery, and a doppler flow-meter (TS420, Transonic System Inc., USA) was connected thereto. 60 minutes after oral administration, a piece of Whatman No. 1 filter paper (2 mm×1 mm) soaked with 50% FeCl3 solution was attached to the underlying blood vessels to which the probe was fixed. The filter paper was removed after 10 minutes, and the change of blood flow due to thrombus formation in the carotid artery was measured for 60 minutes after the time point of removal. The occlusion time was defined as the time at which the blood flow became zero more than one minute for the first time.

[4] = tested on: thrombin-induced platelet aggregation, Human PRP; assay: Thrombin-induced platelet aggregation in human PRP (lumi-aggregometer); assay type: cell-based; details: thrombin 0.6-0.8 U/ml;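 note: aggregation recorded for 5 min after thrombin addition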
Description: as §1, §2

[5] = tested on: Human Washed Platelets (WP); assay: Shear stress-induced platelet aggregation inhibition in human washed platelets (WP); assay type: cell-based; details: for inhibited shear stress-induced platelet aggregation in WP: 10, 25, 50 μM; for inhibition at 10 µM / inhibition at 25 µM / inhibition at 50 µM: Platelet, human WP, read-out: Degree of inhibition (%, Mean ± SEM)
Description: 1-2. Measurement of Platelet Aggregation Inhibitory Effect Using Human Washed Platelets (WP)
To separate human washed platelets (WP), blood was collected from the veins of healthy males using acid-citrate-dextrose (ACD) as an anticoagulant. At the time of blood collection, platelet activation was inhibited by treatment with 1 μM of prostaglandin E1 (PGE1). The collected blood was centrifuged at 150 g for 15 minutes to obtain PRP from the supernatant, which was centrifuged at 500 g for 10 minutes to obtain platelets. The platelets were suspended in and washed with a washing buffer (134 mM NaCl, 2.9 mM KCl, 1.0 mM MgCl2.6H2O, 10.0 mM HEPES, 5.0 mM dextrose, 12.0 mM NaHCO3, 0.34 mM Na2HPO4, 10% ACD, 0.3% bovine serum albumin, 1 μM PGE1, pH 7.4), and then re-centrifuged at 400 g for 10 minutes. The platelets thus obtained were suspended in the suspension buffer. The number of platelets in WP were counted using a hemacytometer. The platelets were diluted with the suspension buffer so as to include 3×10^8 platelets per 1 ml, and CaCl2 was added to give a final concentration of 2 mM and then used in the experiments. vWF was added to WP to give a final concentration of 10 μg/ml. WP was put on a cone-plate viscometer, and shear stress was applied to the WP at 37° C. for 3 minutes at a shear rate of 10,800 s^−1. In order to evaluate efficacy of candidate substances, prior to the induction of platelet aggregation, WP was treated with 10, 25, and 50 μM of candidate substances and incubated at 37° C. for 3 minutes using a thermomixer. After applying the shear stress, 20 μl of WP was fixed in 280 μl of the suspension buffer containing 0.5% glutaraldehyde. Then, the number of single platelets in the suspension was counted using a hemacytometer. The degree of inhibition by the candidate substance was calculated according to formula (1). No shear stress-applied group served as control, and only shear stress-applied group served as a positive control.

SMILES: O=C(c1ccc(O)c(O)c1)N1CCc2sccc2C1 [Example 1, (6,7-Dihydrothieno[3,2-c]pyridin-5(4H)-yl)(3,4-dihydroxyphenyl)methanone]
- Cell viability (%) ([1]; EA.hy926, 25 μM): 92.2 ± 2.8%
- Cell viability (%) ([1]; EA.hy926, 100 μM): 94.2 ± 1.9%
- plasma coagulation time - PT, Time (plasma; 25 μM): 10.8 ± 0.5 s
- plasma coagulation time - PT, Time (plasma; 100 μM): 10.7 ± 0.8 s
- plasma coagulation time - PT, Time (plasma; 250 μM): 11.0 ± 0.1 s
- Degree of platelet aggregation (%, Mean ± SEM) ([2]; 25 μM): 84.3 ± 3.5%
- Degree of platelet aggregation (%, Mean ± SEM) ([2]; 100 μM): 80.7 ± 10.2%
- Degree of platelet aggregation (%, Mean ± SEM) ([2]; 250 μM): 84.3 ± 3.8%
- Time of thrombogenesis [3]: 936 ± 120 s
- Degree of platelet aggregation (%, Mean ± SEM) ([4]; 25 μM): 88.0 ± 2.1%
- Degree of platelet aggregation (%, Mean ± SEM) ([4]; 100 μM): 88.7 ± 6.1%
- Degree of platelet aggregation (%, Mean ± SEM) ([4]; 250 μM): 78.7 ± 1.8%
- inhibited shear stress-induced platelet aggregation in WP [5]: in a dose-dependent manner
- inhibition at 10 µM [5]: 4 ± 3.5%
- inhibition at 25 µM [5]: 23 ± 1.2%
- inhibition at 50 µM [5]: 27 ± 1.7%

SMILES: COc1cc(C(=O)N2CCc3sccc3C2)ccc1O [Example 12, (6,7-Dihydrothieno[3,2-c]pyridin-5(4H)-yl)(4-hydroxy-3-methoxyphenyl)methanone]
- Cell viability (%) ([1]; EA.hy926, 25 μM): 95.1 ± 1.9%
- Cell viability (%) ([1]; EA.hy926, 100 μM): 97.2 ± 2.8%
- plasma coagulation time - PT, Time (plasma; 25 μM): 10.9 ± 0.1 s
- plasma coagulation time - PT, Time (plasma; 100 μM): 11.0 ± 0.5 s
- plasma coagulation time - PT, Time (plasma; 250 μM): 10.5 ± 0.3 s
- Degree of platelet aggregation (%, Mean ± SEM) ([2]; 25 μM): 83.0 ± 4.0%
- Degree of platelet aggregation (%, Mean ± SEM) ([2]; 100 μM): 80.0 ± 2.0%
- Degree of platelet aggregation (%, Mean ± SEM) ([2]; 250 μM): 87.5 ± 3.5%
- Time of thrombogenesis [3]: 665 ± 77 s
- Fold (vs. Control) [3]: 1.9
- Degree of platelet aggregation (%, Mean ± SEM) ([4]; 25 μM): 99.5 ± 7.5%
- Degree of platelet aggregation (%, Mean ± SEM) ([4]; 100 μM): 95.0 ± 12.0%
- Degree of platelet aggregation (%, Mean ± SEM) ([4]; 250 μM): 88.5 ± 4.5%
- inhibited shear stress-induced platelet aggregation in WP [5]: in a dose-dependent manner
- inhibition at 10 µM [5]: 10 ± 2.1%
- inhibition at 25 µM [5]: 30 ± 0.9%
- inhibition at 50 µM [5]: 33 ± 2.1%

SMILES: CCc1occc(=O)c1OC(=O)c1ccc(O)c(OC)c1 [Example 13, 2-Ethyl-4-oxo-4H-pyran-3-yl 4-hydroxy-3-methoxybenzoate]
- Cell viability (%) ([1]; EA.hy926, 25 μM): 100.1 ± 1.9%
- Cell viability (%) ([1]; EA.hy926, 100 μM): 94.2 ± 2.0%
- plasma coagulation time - PT, Time (plasma; 25 μM): 11.0 ± 0.3 s
- plasma coagulation time - PT, Time (plasma; 100 μM): 10.6 ± 0.2 s
- plasma coagulation time - PT, Time (plasma; 250 μM): 10.8 ± 0.3 s
- Degree of platelet aggregation (%, Mean ± SEM) ([2]; 25 μM): 90.0 ± 3.0%
- Degree of platelet aggregation (%, Mean ± SEM) ([2]; 100 μM): 79.5 ± 0.5%
- Degree of platelet aggregation (%, Mean ± SEM) ([2]; 250 μM): 85.5 ± 3.5%
- Time of thrombogenesis [3]: 752 ± 69 s
- Fold (vs. Control) [3]: 2.1
- Degree of platelet aggregation (%, Mean ± SEM) ([4]; 25 μM): 92.5 ± 5.5%
- Degree of platelet aggregation (%, Mean ± SEM) ([4]; 100 μM): 95.0 ± 12.0%
- Degree of platelet aggregation (%, Mean ± SEM) ([4]; 250 μM): 88.5 ± 4.5%
- inhibited shear stress-induced platelet aggregation in WP [5]: in a dose-dependent manner
- inhibition at 10 µM [5]: 12 ± 3.8%
- inhibition at 25 µM [5]: 29 ± 4.1%
- inhibition at 50 µM [5]: 34 ± 2.7%

SMILES: COc1cc(C(=O)Oc2c(C)occc2=O)ccc1O [Example 14, 2-Methyl-4-oxo-4H-pyran-3-yl 4-hydroxy-3-methoxybenzoate]
- Cell viability (%) ([1]; EA.hy926, 25 μM): 99.6 ± 1.7%
- Cell viability (%) ([1]; EA.hy926, 100 μM): 99.5 ± 1.6%
- plasma coagulation time - PT, Time (plasma; 25 μM): 10.1 ± 0.3 s
- plasma coagulation time - PT, Time (plasma; 100 μM): 10.1 ± 0.0 s
- plasma coagulation time - PT, Time (plasma; 250 μM): 11.1 ± 0.1 s
- Degree of platelet aggregation (%, Mean ± SEM) ([2]; 25 μM): 82.0 ± 1.7%
- Degree of platelet aggregation (%, Mean ± SEM) ([2]; 100 μM): 80.0 ± 1.7%
- Degree of platelet aggregation (%, Mean ± SEM) ([2]; 250 μM): 92.0 ± 2.0%
- Time of thrombogenesis [3]: 615 ± 54 s
- Fold (vs. Control) [3]: 1.7
- Degree of platelet aggregation (%, Mean ± SEM) ([4]; 25 μM): 81.3 ± 2.5%
- Degree of platelet aggregation (%, Mean ± SEM) ([4]; 100 μM): 84.0 ± 0.6%
- Degree of platelet aggregation (%, Mean ± SEM) ([4]; 250 μM): 86.0 ± 4.6%
- inhibited shear stress-induced platelet aggregation in WP [5]: in a dose-dependent manner
- inhibition at 10 µM [5]: 8 ± 1.5%
- inhibition at 25 µM [5]: 27 ± 2.3%
- inhibition at 50 µM [5]: 39 ± 0.6%

SMILES: O=C(c1cc(O)ccc1O)N1CCC(c2noc3ccc(F)cc23)CC1 [Example 23, (2,5-Dihydroxyphenyl)(4-(5-fluorobenzo[d]isoxazol-3-yl)piperidin-1-yl)methanone]
- Cell viability (%) ([1]; EA.hy926, 25 μM): 104.3 ± 1.8%
- Cell viability (%) ([1]; EA.hy926, 100 μM): 99.9 ± 1.9%
- plasma coagulation time - PT, Time (plasma; 25 μM): 10.3 ± 0.1 s
- plasma coagulation time - PT, Time (plasma; 100 μM): 10.7 ± 0.2 s
- plasma coagulation time - PT, Time (plasma; 250 μM): 10.8 ± 0.3 s
- Degree of platelet aggregation (%, Mean ± SEM) ([2]; 25 μM): 82.0 ± 5.0%
- Degree of platelet aggregation (%, Mean ± SEM) ([2]; 100 μM): 84.5 ± 4.5%
- Degree of platelet aggregation (%, Mean ± SEM) ([2]; 250 μM): 83.5 ± 2.5%
- Time of thrombogenesis [3]: 674 ± 92 s
- Fold (vs. Control) [3]: 1.9
- Degree of platelet aggregation (%, Mean ± SEM) ([4]; 25 μM): 96.0 ± 4.0%
- Degree of platelet aggregation (%, Mean ± SEM) ([4]; 100 μM): 88.5 ± 6.5%
- Degree of platelet aggregation (%, Mean ± SEM) ([4]; 250 μM): 93.5 ± 1.5%
